Numbers after ± are expanded uncertainties.
Test: cn = amount concentration of the nth substance listed, in mol/dm3
Conditions: Ring tensiometer

O [water] + CCCCCCCCCCCCCC[N+](C)(C)C.[Br-]
c2 = 0
Conditions	surface tension liquid-gas [mN/m]
293 K	72.8 ± 1.3
313 K	69.6 ± 1.3

O [water] + CCCCCCCCCCCCCCCC[N+](C)(C)C.[Br-]
c2 = 0
Conditions	surface tension liquid-gas [mN/m]
293 K	72.8 ± 1.3
303 K	71.2 ± 1.3
313 K	69.6 ± 1.3

CCCCCCCCCCCCOS(=O)(=O)[O-].[Na+] [sodium dodecyl sulfate] + O
surface tension liquid-gas [mN/m]
Conditions	293 K	303 K	313 K
c1 = 1e-08	72.8 ± 1.3	71.2 ± 1.3	69.6 ± 1.3
c1 = 1e-07	72.9 ± 1.3	71.19 ± 1.3	69.6 ± 1.3
c1 = 1e-06	72.79 ± 1.3	71.17 ± 1.3	69.58 ± 1.3
c1 = 3.98e-06	72.78 ± 1.3	71.15 ± 1.3	69.56 ± 1.3
c1 = 7.94e-06	72.76 ± 1.3	71.14 ± 1.3	69.53 ± 1.3
c1 = 1e-05	72.75 ± 1.3	71 ± 1.3	69.51 ± 1.3
c1 = 5.01e-05	72.69 ± 1.3	70.81 ± 1.3	69.48 ± 1.3
c1 = 6.31e-05	72.46 ± 1.3	70.59 ± 1.3	69.27 ± 1.3
c1 = 0.0001	72.24 ± 1.3	70.01 ± 1.3	69.05 ± 1.3
c1 = 0.0002	71.62 ± 1.3	69.29 ± 1.3	67.85 ± 1.3
c1 = 0.000631	68.1 ± 1.3	66.62 ± 1.3	65.14 ± 1.3
c1 = 0.000794	66.25 ± 1.3	65.21 ± 1.3	64.01 ± 1.2
c1 = 0.001	64.32 ± 1.2	63.87 ± 1.2	62.73 ± 1.2
c1 = 0.002	57.43 ± 1.2	57.02 ± 1.2	55.94 ± 1.2
c1 = 0.00398	49.72 ± 1.2	49.52 ± 1.2	48.45 ± 1.2
c1 = 0.00631	43.37 ± 1.1	42.98 ± 1.1	41.7 ± 1.1
c1 = 0.00794	38.88 ± 1.1	38.34 ± 1.1	36.91 ± 1.1
c1 = 0.00832	38.4 ± 1.1	38.21 ± 1.1	36.42 ± 1.1
c1 = 0.01	38.4 ± 1.1	38.21 ± 1.1	36.42 ± 1.1

O [water] + CCCCCCCCCCCC[N+](C)(C)Cc1ccccc1.[Br-]
c2 = 0
Conditions	surface tension liquid-gas [mN/m]
293 K	72.8 ± 1.3
303 K	71.2 ± 1.3
313 K	69.6 ± 1.3

CCCCCCCCCCCCN(C)CC(=O)[O-].[Na+] [sodium laurylsarcosinate] + O
surface tension liquid-gas [mN/m]
Conditions	293 K	303 K	313 K
c1 = 1e-07	72.4 ± 1.3	71.19 ± 1.3	69.59 ± 1.3
c1 = 5.01e-07	72.2 ± 1.3	71.15 ± 1.3	69.56 ± 1.3
c1 = 1e-06	72 ± 1.3	71.1 ± 1.3	69.52 ± 1.3
c1 = 5.01e-06	71.6 ± 1.3	70.72 ± 1.3	69.2 ± 1.3
c1 = 1e-05	71.4 ± 1.3	70.28 ± 1.3	68.83 ± 1.3
c1 = 5.01e-05	69 ± 1.3	67.57 ± 1.3	66.49 ± 1.3
c1 = 0.0001	65.5 ± 1.3	65.33 ± 1.3	64.45 ± 1.2
c1 = 0.000501	48.6 ± 1.2	48.46 ± 1.2	48.32 ± 1.2
c1 = 0.000631	46.3 ± 1.1	46.1 ± 1.1	46 ± 1.1
c1 = 0.000708	44.9 ± 1.1	44.03 ± 1.1	43.82 ± 1.1
c1 = 0.000794	43.6 ± 1.1	42.91 ± 1.1	42.71 ± 1.1
c1 = 0.000891	42.3 ± 1.1	41.85 ± 1.1	41.15 ± 1.1
c1 = 0.001	41.1 ± 1.1	40.33 ± 1.1	39.51 ± 1.1
c1 = 0.002	32.9 ± 1.1	32.39 ± 1.1	31.83 ± 1.1
c1 = 0.00316	28.3 ± 1.1	28 ± 1.1	27.5 ± 1.1
c1 = 0.00398	26.9 ± 1.1	26.65 ± 1.1	26.12 ± 1.1
c1 = 0.00501	26.5 ± 1.1	26.45 ± 1.1	25.48 ± 1.1
c1 = 0.01	26.5 ± 1.1	26.45 ± 1.1	25.42 ± 1.1
